From patent publication US8901035B2, “Herbicidal compositions comprising 4-amino-3-chloro-5-fluoro-6-(4-chloro-2-fluoro-3-methoxyphenyl) pyridine-2-carboxylic acid or a derivative thereof and cellulose biosynthesis inhibitor herbicides” (Dow AgroSciences LLC, priority 2012, dated 2014)

Tests used:
Format in all cases: in vivo
[1] = tested on: Ipomoea hederacea Jacq. (IPOHE); assay: Postemergence foliar-applied herbicidal mixtures, weed control in direct seeded rice (greenhouse)
Text: (§1) Seeds or nutlets of the desired test plant species were planted in a soil matrix prepared by mixing a loam or sandy loam soil (e.g., 28.6 percent silt, 18.8 percent clay, and 52.6 percent sand, with a pH of about 5.8 and an organic matter content of about 1.8 percent) and calcareous grit in an 80 to 20 ratio. The soil matrix was contained in plastic pots with a volume of 1 quart and a surface area of 83.6 square centimeters (cm^2). When required to ensure good germination and healthy plants, a fungicide treatment and/or other chemical or physical treatment was applied. The plants were grown for 8-22 days in a greenhouse with an approximate 14 h photoperiod which was maintained at about 29° C. during the day and 26° C. during the night. Nutrients (Peters Excel® 15-5-15 5-Ca 2-Mg and iron chelate) were applied in the irrigation solution as needed and water was added on a regular basis. Supplemental lighting was provided with overhead metal halide 1000-Watt lamps as necessary. The plants were employed for testing when they reached the first through fourth true leaf stage.
(§2) Treatments consisted of the acid or esters of 4-amino-3-chloro-5-fluoro-6-(4-chloro-2-fluoro-3-methoxy-phenyl) pyridine-2-carboxylic acid (Compound A), each formulated as an SC (suspension concentrate), and various herbicidal components alone and in combination. Forms of compound A were applied on an acid equivalent basis.
(§3) Other herbicidal components were applied on an active ingredient basis and included cellulose biosynthesis-inhibiting (CBI) herbicides isoxaben formulated as Gallery® 75DF and indaziflam formulated as Specticle® 20WSP.
(§4) Treatment requirements were calculated based upon the rates being tested, the concentration of active ingredient or acid equivalent in the formulation, and a 12 mL application volume at a rate of 187 L/ha.
(§5) For treatments comprised of formulated compounds, measured amounts of compounds were placed individually in 25 mL glass vials and diluted in a volume of 1.25% (v/v) Agri-Dex® crop oil concentrated to obtain 12× stock solutions. […] Application solutions were prepared by adding an appropriate amount of each stock solution (e.g., 1 mL) and diluted to the appropriate final concentrations with the addition of 10 mL of an aqueous mixture of 1.25% (v/v) crop oil concentrate so that the final spray solutions contained 1.25+/−0.05% (v/v) crop oil concentrate.
(§6) All stock solutions and applications solutions were visually inspected for compound compatibility prior to application. Spray solutions were applied to the plant material with an overhead Mandel track sprayer equipped with a 8002E nozzles calibrated to deliver 187 L/ha over an application area of 0.503 m^2 at a spray height of 18 to 20 inches (46 to 50 cm) above average plant canopy height. Control plants were sprayed in the same manner with the solvent blank.
(§7) The treated plants and control plants were placed in a greenhouse as described above and watered by sub-irrigation to prevent wash-off of the test compounds. After approximately 3 weeks, the condition of the test plants as compared with that of the untreated plants was determined visually and scored on a scale of 0 to 100 percent where 0 corresponds to no injury or growth inhibition and 100 corresponds to complete kill.
(§8) Colby's equation was used to determine the herbicidal effects expected from the mixtures (Colby, S. R. 1967. Calculation of the synergistic and antagonistic response of herbicide combinations. Weeds 15:20-22).
(§9) The following equation was used to calculate the expected activity of mixtures containing two active ingredients, A and B: Expected=A+B−(A×B/100)
(§10) A=observed efficacy of active ingredient A at the same concentration as used in the mixture.
(§11) B=observed efficacy of active ingredient B at the same concentration as used in the mixture.

[2] = tested on: Brachiaria platyphylla (Griseb.) Nash or Urochloa platyphylla (Nash) R.D. Webster (BRAPP); assay: as above
Text: as §1, §2, §3, §4, §5, §6, §7, §8, §9, §10, §11

Cyperus iria L. (CYPIR) = assay: as above
Text: as §1, §2, §3, §4, §5, §6, §7, §8, §9, §10, §11

[3] = tested on: Digitaria sanguinalis (L.) Scop. (DIGSA); assay: as above
Text: as §1, §2, §3, §4, §5, §6, §7, §8, §9, §10, §11

[4] = tested on: Leptochloa chinensis (L.) Nees (LEFCH); assay: as above
Text: as §1, §2, §3, §4, §5, §6, §7, §8, §9, §10, §11

[5] = tested on: Setaria faberi Herrm. (SETFA); assay: Pre-emergence soil-applied herbicidal mixtures for weed control (greenhouse)
Text: Seeds or nutlets of the desired test plant species were planted in a soil matrix prepared by mixing a loam soil (e.g., 32 percent silt, 23 percent clay, and 45 percent sand, with a pH of about 6.5 and an organic matter content of about 1.9 percent) and calcareous grit in an 80 to 20 ratio. The soil matrix was contained in plastic pots with a volume of 1 quart and a surface area of 83.6 square centimeters (cm^2).
Treatments consisted of the benzyl ester of 4-amino-3-chloro-5-fluoro-6-(4-chloro-2-fluoro-3-methoxy-phenyl)pyridine-2-carboxylic acid (compound A) formulated as an SC (suspension concentrate) and various herbicidal components alone and in combination. Forms of compound A were applied on an acid equivalent basis.
Other herbicidal components were applied on an acid equivalent or active ingredient basis and included the cellulose biosynthesis inhibiting herbicides, isoxaben formulated as Gallery® 75DF and indaziflam formulated as Specticle® 20WSP.
as §4
as §5, with “oil concentrate (COC)” for “oil concentrated”, “(v/v) COC” for “(v/v) crop oil concentrate”, “contained 1.25%” for “contained 1.25+/−0.05%”, “(v/v) COC.” for “(v/v) crop oil concentrate.”
as §6, with “soil” for “plant material”, “18” for “18 to 20”, “(46” for “(46 to 50”, “pot” for “plant canopy”, “pots” for “plants”
The treated and control pots were placed in a greenhouse and top watered as needed. When required to ensure good germination and healthy plants, a fungicide treatment and/or other chemical or physical treatment was applied. The pots were maintained in a greenhouse with an approximate 14 hr. photoperiod which was maintained at about 29° C. during the day and 26° C. during the night. Nutrients (Peters® Excel 15-5-15 5-Ca 2-Mg) were applied in the irrigation solution as needed and water was added on a regular basis. Supplemental lighting was provided with overhead metal halide 1000-Watt lamps as necessary. After approximately 4 weeks, the condition of the test plants as compared with that of the untreated plants was determined visually and scored on a scale of 0 to 100 percent where 0 corresponds to no injury or growth inhibition and 100 corresponds to complete kill.
as §8, §9, §10, §11

[6] = Compound A Benzyl Ester 4.38 g ae/ha alone
[7] = Compound A Benzyl Ester 8.75 g ae/ha alone
[8] = Compound A Benzyl Ester 17.5 g ae/ha alone

## COc1c(Cl)ccc(-c2nc(C(=O)OCc3ccccc3)c(Cl)c(N)c2F)c1F [Compound A Benzyl Ester, benzyl ester of 4-amino-3-chloro-5-fluoro-6-(4-chloro-2-fluoro-3-methoxy-phenyl)pyridine-2-carboxylic acid]
[1]; [6]
  Visual Weed Control (%) - 20 DAA Obs: 10%
[1]; [7]
  Visual Weed Control (%) - 20 DAA Obs: 10%
[1]; [8]
  Visual Weed Control (%) - 20 DAA Obs: 15%
[2]; [6]
  Visual Weed Control (%) - 20 DAA Obs: 70%
[2]; [7]
  Visual Weed Control (%) - 20 DAA Obs: 80%
[2]; [8]
  Visual Weed Control (%) - 20 DAA Obs: 90%
Cyperus iria L. (CYPIR); [6]
  Visual Weed Control (%) - 20 DAA Obs: 70%
[3]; [6]
  Visual Weed Control (%) - 21 DAA Obs: 10%
[3]; [7]
  Visual Weed Control (%) - 20 DAA Obs: 30%
  Visual Weed Control (%) - 21 DAA Obs: 45%
[3]; [8]
  Visual Weed Control (%) - 20 DAA Obs: 30%
  Visual Weed Control (%) - 21 DAA Obs: 70%
[4]; [6]
  Visual Weed Control (%) - 21 DAA Obs: 30%
[4]; [7]
  Visual Weed Control (%) - 21 DAA Obs: 35%
[4]; [8]
  Visual Weed Control (%) - 21 DAA Obs: 35%
[5]; Compound A Benzyl Ester 16 g ae/ha alone
  Visual Weed Control (%) - 27 DAA SETFA Obs: 8%
[5]; Compound A Benzyl Ester 32 g ae/ha alone
  Visual Weed Control (%) - 27 DAA SETFA Obs: 15%

## CCC(C)(CC)c1cc(NC(=O)c2c(OC)cccc2OC)on1 [Isoxaben, N-[3-(1-ethyl-1-methylpropyl)-5-isoxazolyl]-2,6-dimethoxybenzamide, reference compound]
[1]; Isoxaben 140 g ai/ha alone
  Visual Weed Control (%) - 20 DAA Obs: 15%
[1]; Isoxaben 280 g ai/ha alone
  Visual Weed Control (%) - 20 DAA Obs: 25%
[2]; Isoxaben 140 g ai/ha alone
  Visual Weed Control (%) - 20 DAA Obs: 0%
[2]; Isoxaben 280 g ai/ha alone
  Visual Weed Control (%) - 20 DAA Obs: 0%
[2]; Isoxaben 560 g ai/ha alone
  Visual Weed Control (%) - 20 DAA Obs: 20%
Cyperus iria L. (CYPIR); Isoxaben 140 g ai/ha alone
  Visual Weed Control (%) - 20 DAA Obs: 10%
Cyperus iria L. (CYPIR); Isoxaben 280 g ai/ha alone
  Visual Weed Control (%) - 20 DAA Obs: 60%
Cyperus iria L. (CYPIR); Isoxaben 560 g ai/ha alone
  Visual Weed Control (%) - 20 DAA Obs: 50%
[3]; Isoxaben 280 g ai/ha alone
  Visual Weed Control (%) - 20 DAA Obs: 10%
[3]; Isoxaben 560 g ai/ha alone
  Visual Weed Control (%) - 20 DAA Obs: 20%
[4]; Isoxaben 140 g ai/ha alone
  Visual Weed Control (%) - 20 DAA Obs: 0%
[4]; Isoxaben 280 g ai/ha alone
  Visual Weed Control (%) - 20 DAA Obs: 0%
